Measured values reported in patent publication US8476255B2, “Histone deacetylase inhibitors” (Orchid Chemicals & Pharmaceuticals Limited, priority 2007, dated 2013).

Tests used:
U251 (glioma) cells = test: Anti-cancer screen (MTT), U251; type: cell-based; settings: Homo sapiens, U-251, U251, 48 hours, MTT
How it was run: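 5×10^4 cells/mL, DMEM + 10% FBS, 24 h attach, 37 °C/5% CO2. Cpds 0.01–100 μM (5 conc., triplicate), 48 h. MTT 3 h → DMSO → A570; T0 plate read at dosing.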

recombinant HDAC1 enzyme = recombinant HDAC1 enzyme (Homo sapiens (Human), UniProt Q13547); test: HDAC1 inhibitory activity (isoform selectivity); type: biochemical; settings: read-out: HDAC1 inhibition (IC50)
Description: The assay was carried out, as previously described using recombinant HDAC1 enzyme (BIOMOL, USA) and following manufacturer's instructions.

HCT116 (colon) xenograft = type: in vivo; settings: oral gavage once every day for 21 days, vs vehicle treated control
Description: Experiments were carried out using 6-8 week old female athymic SCID (Severe Combined Immune Deficient) mice. The mice were housed in Individually Ventilated Cages (IVC) at constant temperature (22±3° C.) and humidity (50±20%). They had free access to food and water. Tumors were obtained from ATCC, USA and maintained in vivo by subcutaneous (s.c.) passage of tumor fragments (appx 30 mg) in healthy mice according to standard reported procedures. All the animal protocols were approved by the Institutional Animal Ethics Committee, ORLL, Chennai. Each experimental group included 6-8 mice bearing s.c. tumors. Tumors were implanted into the axillary region by puncturing using a Trocar, and tumor growth was monitored by measurement of tumor diameters with a Vernier caliper. Tumor Volume (TV) was calculated according to the following formula: TV(mm^3)=L×W^2×0.5, […]
Test compound was administered by oral gavage in a volume of 5-10 ml/kg. […] Tumor size was measured twice every week and body weight was recorded daily prior to dosing.
Test compound (T) efficacy was assessed by calculating several parameters based on tumor volume (TV) with respect to untreated control (C). Parameters routinely assessed were T/C % [TVtest/TVcontrol×100] and Tumor Volume Inhibition (TVI=1−T/C %). […]
Toxic effects of drug treatment were assessed by Body Weight Loss %. […]

[1] = tested on: HDAC (Mouse Liver Extract); test: HDAC inhibition assay using Boc-Lys(Ac)-AMC substrate; type: biochemical; settings: mouse liver enzyme
How it was run: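 Released AMC measured at 360 nm excitation, 460 nm emission after 15-30 min trypsin development at 37° C. Preceding deacetylation: mouse liver extract with acetylated-lysine AMC substrate, 30 min at 37° C after 5-min preincubation; blanks were buffer alone and substrate alone.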

acetylated Tubulin = test: Tubulin acetylation, sandwich ELISA in HCT116 lysate; type: cell-based; settings: HCT116, 4 hours
Description: (§1) Acetylated histone (H3), acetylated Tubulin and p21 levels were detected in cell lysate by sandwich ELISA method (Cell Signaling Technology, USA, Cat No: 7232, 7204 & 7167 respectively) by following manufacturer's instructions. Briefly, colon cancer cells (HCT116. 10,000/well) were incubated with test compound (1 and 10 μM) or medium (control) for 4 hours at 37° C. in CO2 incubator. The incubation lasted 18 hours for p21 induction. After incubation, cell lysates were prepared in cell lysis buffer by sonication on ice. The lysates were collected after centrifugation and subjected to ELISA test procedure. 100 μL of each diluted cell lysate in dilution buffer (1:1) was added to appropriate capture antibody coated microwells and incubated overnight at 4° C. After washing, 100 μL of detection antibody was added for 1 hour at 37° C. After second washing, 100 μL of HRP-linked secondary antibody was added for 30 min at 37° C. Finally, after appropriate washing, 100 μL of TMB substrate was added for 10 min at 37° C. followed by 100 μL of stop solution. The absorbance of individual wells was read using a spectrophotometer at 450 nm (A450).

p21 = p21 induction, sandwich ELISA in HCT116 lysate; type: cell-based; settings: HCT116, 18 hours
Description: as §1

Chain of recombinant HDAC1 enzyme (Q13547 whole entry, canonical isoform): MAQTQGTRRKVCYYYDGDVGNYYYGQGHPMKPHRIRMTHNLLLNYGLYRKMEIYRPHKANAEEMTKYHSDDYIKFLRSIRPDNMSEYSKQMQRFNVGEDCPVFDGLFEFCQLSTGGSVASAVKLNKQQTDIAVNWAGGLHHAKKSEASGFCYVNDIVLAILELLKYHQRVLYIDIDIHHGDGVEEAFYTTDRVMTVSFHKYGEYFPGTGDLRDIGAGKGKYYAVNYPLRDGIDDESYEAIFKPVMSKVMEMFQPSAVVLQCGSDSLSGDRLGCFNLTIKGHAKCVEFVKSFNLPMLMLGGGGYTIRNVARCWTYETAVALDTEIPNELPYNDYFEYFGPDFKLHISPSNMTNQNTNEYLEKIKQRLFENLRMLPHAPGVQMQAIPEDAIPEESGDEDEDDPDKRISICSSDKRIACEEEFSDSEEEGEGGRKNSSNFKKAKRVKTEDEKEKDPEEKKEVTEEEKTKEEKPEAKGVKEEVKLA

SMILES: COc1ccc(/C=C(/C(=O)NCc2ccc(C(=O)Nc3ccccc3N)cc2)c2ccc(F)cc2)cc1OC [Compound 19, N-(2-Aminophenyl)-4-((3-(3,4-dimethoxyphenyl)-2-(4-fluorophenyl)acrylamido)methyl)benzamide]
- GI50 (U251 (glioma) cells; read-out: Cell growth inhibition U251 (Glioma) GI50): 300 nM
- LC50 (concentration giving 50% net cell kill relative to the time-zero cell count) (U251 (glioma) cells; read-out: Cell growth inhibition U251 (Glioma) LC50): 4800 nM
- IC (TGI) (U251 (glioma) cells; read-out: Cell growth inhibition U251 (Glioma) TGI): 1800 nM
- IC50 (recombinant HDAC1 enzyme): 42 nM
- maximum Tumor Volume Inhibition (TVI) (HCT116 (colon) xenograft): 42%
- HDAC inhibition % (1 μM) ([1]; 1 μM): 29.7%
- HDAC inhibition % (10 μM) ([1]; 10 μM): 52.9%
- IC50 [1]: 8600 nM
- Tubulin acetylation (Fold increase) (acetylated Tubulin; 1 μM): 1.9 Fold increase
- Tubulin acetylation (Fold increase) (acetylated Tubulin; 10 μM): 4.4 Fold increase
- P21 induction (Fold increase) (p21; 1 μM): 1.6 Fold increase
- P21 induction (Fold increase) (p21; 10 μM): 2.4 Fold increase
